Results on 18 compounds are retold here after US8952157B2, “Apoptosis-inducing agents for the treatment of cancer and immune and autoimmune diseases” (AbbVie Inc., priority 2008, dated 2015).

One assay deals with GST-Bcl-2 (Homo sapiens (Human), UniProt P10415). Kind of assay: Time Resolved-Fluorescence Resonance Energy Transfer (TR-FRET) Bcl-2 binding assay.
Sequence of GST-Bcl-2 (P10415 whole entry): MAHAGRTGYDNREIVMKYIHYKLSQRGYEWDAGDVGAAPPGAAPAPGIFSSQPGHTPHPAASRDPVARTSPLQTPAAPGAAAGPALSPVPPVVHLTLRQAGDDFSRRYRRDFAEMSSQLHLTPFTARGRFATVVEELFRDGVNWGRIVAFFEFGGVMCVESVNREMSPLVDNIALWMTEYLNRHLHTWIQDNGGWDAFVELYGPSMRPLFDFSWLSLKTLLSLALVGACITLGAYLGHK
Settings: not given
The method, boiled down: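 Ki values derived from TR-FRET displacement of F-Bak peptide from GST-Bcl-2, detected with Tb-labelled anti-GST antibody (ex 340, em 520/495 nm). Compound dilution series started at 50 μM (2× starting concentration); room-temperature incubation 3 hours.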
A general note: In TR-FRET formats the signal depends on donor and acceptor labels being close together.
On to `CC1(C)CCC(CN2CCN(c3ccc(C(=O)NS(=O)(=O)c4ccc(N[C@H]5CC[C@H](N6CCOCC6)CC5)c([N+](=O)[O-])c4)c(Oc4cnc(N)c(Cl)c4)c3)CC2)=C(c2ccc(Cl)cc2)C1` [Example 324, Trans-2-[(6-amino-5-chloropyridin-3-yl)oxy]-4-(4-{[2-(4-chlorophenyl)-4,4-dimethylcyclohex-1-en-1-yl]methyl}piperazin-1-yl)-N-({4-[(4-morpholin-4-ylcyclohexyl)amino]-3-nitrophenyl}sulfonyl)benzamide], for which the Ki – broadly, a dissociation constant, usually derived from enzyme kinetics or from competition with a known ligand – was under 0.01 nM.

As to `CC1(C)CCC(CN2CCN(c3ccc(C(=O)NS(=O)(=O)c4ccc(N[C@H]5CC[C@H](N(C6CC6)C6CC6)CC5)c([N+](=O)[O-])c4)c(Oc4cc5cc[nH]c5cc4F)c3)CC2)=C(c2ccc(Cl)cc2)C1` [Example 334, Trans-4-(4-{[2-(4-chlorophenyl)-4,4-dimethylcyclohex-1-en-1-yl]methyl}piperazin-1-yl)-N-[(4-{[4-(dicyclopropylamino)cyclohexyl]amino}-3-nitrophenyl)sulfonyl]-2-[(6-fluoro-1H-indol-5-yl)oxy]benzamide], the affinity corresponds to a Ki of 0.197 nM.

`CC1(C)CCC(CN2CCN(c3ccc(C(=O)NS(=O)(=O)c4ccc(N[C@H]5CC[C@H](NC6CCOCC6)CC5)c([N+](=O)[O-])c4)c(Oc4cc5cc[nH]c5cc4F)c3)CC2)=C(c2ccc(Cl)cc2)C1` [Example 335, Trans-4-(4-{[2-(4-chlorophenyl)-4,4-dimethylcyclohex-1-en-1-yl]methyl}piperazin-1-yl)-2-[(6-fluoro-1H-indol-5-yl)oxy]-N-[(3-nitro-4-{[4-(tetrahydro-2H-pyran-4-ylamino)cyclohexyl]amino}phenyl)sulfonyl]benzamide] showed an inhibition constant (Ki) of under 0.01 nM.

In the case of `CC1(C)CCC(CN2CCN(c3ccc(C(=O)NS(=O)(=O)c4ccc(N[C@H]5CC[C@H](N6CCN(C7CCOCC7)CC6)CC5)c([N+](=O)[O-])c4)c(Oc4cc5cc[nH]c5cc4F)c3)CC2)=C(c2ccc(Cl)cc2)C1` [Example 336, Trans-4-(4-{[2-(4-chlorophenyl)-4,4-dimethylcyclohex-1-en-1-yl]methyl}piperazin-1-yl)-2-[(6-fluoro-1H-indol-5-yl)oxy]-N-[(3-nitro-4-{[4-(4-tetrahydro-2H-pyran-4-ylpiperazin-1-yl)cyclohexyl]amino}phenyl)sulfonyl]benzamide], the Ki was under 0.01 nM.

`CC1(C)CCC(CN2CCN(c3ccc(C(=O)NS(=O)(=O)c4ccc(NC[C@H]5CC[C@H](O)CC5)c([N+](=O)[O-])c4)c(Oc4cc5cc[nH]c5cc4F)c3)CC2)=C(c2ccc(Cl)cc2)C1` [Example 338, Trans-4-(4-{[2-(4-chlorophenyl)-4,4-dimethylcyclohex-1-en-1-yl]methyl}piperazin-1-yl)-2-[(6-fluoro-1H-indol-5-yl)oxy]-N-[(4-{[(4-hydroxycyclohexyl)methyl]amino}-3-nitrophenyl)sulfonyl]benzamide]: the Ki is under 0.01 nM.

The assay is the same for the next values; noted with them: GST-Bcl-2 1 nM, F-Bak peptide probe 100 nM, Tb-anti-GST antibody 1 nM; Ki by Wang's equation.
`C#Cc1cc(S(=O)(=O)NC(=O)c2ccc(N3CCN(CC4=C(c5ccc(Cl)cc5)CC(C)(C)CC4)CC3)cc2Oc2cc3cc[nH]c3cc2F)cnc1OCC1CCOCC1` [Example 322, 4-(4-{[2-(4-chlorophenyl)-4,4-dimethylcyclohex-1-en-1-yl]methyl}piperazin-1-yl)-N-{[5-ethynyl-6-(tetrahydro-2H-pyran-4-ylmethoxy)pyridin-3-yl]sulfonyl}-2-[(6-fluoro-1H-indol-5-yl)oxy]benzamide]: the Ki was 4.53 nM.

Consider `C#Cc1cc(S(=O)(=O)NC(=O)c2ccc(N3CCN(CC4=C(c5ccc(Cl)cc5)CC(C)(C)OC4)CC3)cc2Oc2cc3cc[nH]c3cc2F)cnc1OCC1CCOCC1` [Example 323, 4-(4-{[4-(4-chlorophenyl)-6,6-dimethyl-5,6-dihydro-2H-pyran-3-yl]methyl}piperazin-1-yl)-N-{[5-ethynyl-6-(tetrahydro-2H-pyran-4-ylmethoxy)pyridin-3-yl]sulfonyl}-2-[(6-fluoro-1H-indol-5-yl)oxy]benzamide], for which the Ki came to 3.48 nM.

`CC1(C)CCC(CN2CCN(c3ccc(C(=O)NS(=O)(=O)c4cnc(OC5CCN(C6CCOCC6)CC5)c(C#N)c4)c(Oc4cc5cc[nH]c5cc4F)c3)CC2)=C(c2ccc(Cl)cc2)C1` [Example 325, 4-(4-{[2-(4-chlorophenyl)-4,4-dimethylcyclohex-1-en-1-yl]methyl}piperazin-1-yl)-N-({5-cyano-6-[(1-tetrahydro-2H-pyran-4-ylpiperidin-4-yl)oxy]pyridin-3-yl}sulfonyl)-2-[(6-fluoro-1H-indol-5-yl)oxy]benzamide] came in with a Ki of 0.183 nM.

Compound `CC1(C)CCC(CN2CCN(c3ccc(C(=O)NS(=O)(=O)c4cnc(OCC5(F)CCOCC5)c(Cl)c4)c(Oc4cc5cc[nH]c5cc4F)c3)CC2)=C(c2ccc(Cl)cc2)C1` [Example 326, N-({5-chloro-6-[(4-fluorotetrahydro-2H-pyran-4-yl)methoxy]pyridin-3-yl}sulfonyl)-4-(4-{[2-(4-chlorophenyl)-4,4-dimethylcyclohex-1-en-1-yl]methyl}piperazin-1-yl)-2-[(6-fluoro-1H-indol-5-yl)oxy]benzamide] had an inhibition constant (Ki) of 0.037 nM.

Turning to `CC1(C)CCC(CN2CCN(c3ccc(C(=O)NS(=O)(=O)c4ccc(NC5CCN(C6CC6)CC5)c([N+](=O)[O-])c4)c(Oc4cc5cc[nH]c5cc4F)c3)CC2)=C(c2ccc(Cl)cc2)C1` [Example 327, 4-(4-{[2-(4-chlorophenyl)-4,4-dimethylcyclohex-1-en-1-yl]methyl}piperazin-1-yl)-N-({4-[(1-cyclopropylpiperidin-4-yl)amino]-3-nitrophenyl}sulfonyl)-2-[(6-fluoro-1H-indol-5-yl)oxy]benzamide], the inhibition constant (Ki) was found to be 0.212 nM.

`CCN1CCOCC1COc1ccc(S(=O)(=O)NC(=O)c2ccc(N3CCN(CC4=C(c5ccc(Cl)cc5)CC(C)(C)CC4)CC3)cc2Oc2cc3cc[nH]c3cc2F)cc1[N+](=O)[O-]` (stereo not drawn) [Example 328, 4-(4-{[2-(4-chlorophenyl)-4,4-dimethylcyclohex-1-en-1-yl]methyl}piperazin-1-yl)-N-({4-[(4-ethylmorpholin-3-yl)methoxy]-3-nitrophenyl}sulfonyl)-2-[(6-fluoro-1H-indol-5-yl)oxy]benzamide]: the affinity, expressed as Ki, was 0.068 nM.

Regarding `CC1(C)CCC(CN2CCN(c3ccc(C(=O)NS(=O)(=O)c4ccc(N[C@H]5CCCN(C6CCOCC6)C5)c([N+](=O)[O-])c4)c(Oc4cc5cc[nH]c5cc4F)c3)CC2)=C(c2ccc(Cl)cc2)C1` [Example 329, 4-(4-{[2-(4-chlorophenyl)-4,4-dimethylcyclohex-1-en-1-yl]methyl}piperazin-1-yl)-2-[(6-fluoro-1H-indol-5-yl)oxy]-N-[(3-nitro-4-{[(3S)-1-tetrahydro-2H-pyran-4-ylpiperidin-3-yl]amino}phenyl)sulfonyl]benzamide], the inhibitory constant (Ki) came out at 0.108 nM. This Ki lies about 1.6-fold higher than the previous one.

For `CC1(C)CCC(CN2CCN(c3ccc(C(=O)NS(=O)(=O)c4ccc(OCC5(F)CCOCC5)c([N+](=O)[O-])c4)c(Oc4cnc(N)c(Cl)c4)c3)CC2)=C(c2ccc(Cl)cc2)C1` [Example 330, 2-[(6-amino-5-chloropyridin-3-yl)oxy]-4-(4-{[2-(4-chlorophenyl)-4,4-dimethylcyclohex-1-en-1-yl]methyl}piperazin-1-yl)-N-({4-[(4-fluorotetrahydro-2H-pyran-4-yl)methoxy]-3-nitrophenyl}sulfonyl)benzamide], the inhibitory constant (Ki) was under 0.01 nM.

Take `CC1(C)CCC(CN2CCN(c3ccc(C(=O)NS(=O)(=O)c4ccc(NN5CCS(=O)(=O)CC5)c([N+](=O)[O-])c4)c(Oc4cc5cc[nH]c5cc4F)c3)CC2)=C(c2ccc(Cl)cc2)C1` [Example 331, 4-(4-{[2-(4-chlorophenyl)-4,4-dimethylcyclohex-1-en-1-yl]methyl}piperazin-1-yl)-N-({4-[(1,1-dioxidothiomorpholin-4-yl)amino]-3-nitrophenyl}sulfonyl)-2-[(6-fluoro-1H-indol-5-yl)oxy]benzamide]: the Ki was 0.238 nM.

With `CC1(C)CCC(CN2CCN(c3ccc(C(=O)NS(=O)(=O)c4ccc(NCC5CCOC5)c([N+](=O)[O-])c4)c(Oc4cc5cc[nH]c5cc4F)c3)CC2)=C(c2ccc(Cl)cc2)C1` (stereo not drawn) [Example 332, 4-(4-{[2-(4-chlorophenyl)-4,4-dimethylcyclohex-1-en-1-yl]methyl}piperazin-1-yl)-2-[(6-fluoro-1H-indol-5-yl)oxy]-N-({3-nitro-4-[(tetrahydrofuran-3-ylmethyl)amino]phenyl}sulfonyl)benzamide], the inhibition constant Ki was 0.034 nM. This Ki lies about 7-fold lower than the previous one.

Take `CC1(C)CCC(CN2CCN(c3ccc(C(=O)NS(=O)(=O)c4ccc(NCC5(F)CCOCC5)c([N+](=O)[O-])c4)c(Oc4cc5cc[nH]c5cc4F)c3)CC2)=C(c2ccc(Cl)cc2)C1` [Example 337, 4-(4-{[2-(4-chlorophenyl)-4,4-dimethylcyclohex-1-en-1-yl]methyl}piperazin-1-yl)-2-[(6-fluoro-1H-indol-5-yl)oxy]-N-[(4-{[(4-fluorotetrahydro-2H-pyran-4-yl)methyl]amino}-3-nitrophenyl)sulfonyl]benzamide]: the Ki was determined as 0.049 nM. The Ki values of the last two compounds are within 1.5-fold of each other.

With `CN(C)CCCc1c[nH]c2cccc(Oc3cc(N4CCN(CC5=C(c6ccc(Cl)cc6)CC(C)(C)CC5)CC4)ccc3C(=O)NS(=O)(=O)c3ccc(NCC4CCOCC4)c([N+](=O)[O-])c3)c12` [Example 339, 4-(4-{[2-(4-chlorophenyl)-4,4-dimethylcyclohex-1-en-1-yl]methyl}piperazin-1-yl)-2-({3-[3-(dimethylamino)propyl]-1H-indol-4-yl}oxy)-N-({3-nitro-4-[(tetrahydro-2H-pyran-4-ylmethyl)amino]phenyl}sulfonyl)benzamide], the Ki was 0.057 nM.

`CN(C)CCCc1c[nH]c2cccc(Oc3cc(N4CCN(CC5=C(c6ccc(Cl)cc6)CC(C)(C)CC5)CC4)ccc3C(=O)NS(=O)(=O)c3ccc(NN4CCN(C)CC4)c([N+](=O)[O-])c3)c12` [Example 340, 4-(4-{[2-(4-chlorophenyl)-4,4-dimethylcyclohex-1-en-1-yl]methyl}piperazin-1-yl)-2-({3-[3-(dimethylamino)propyl]-1H-indol-4-yl}oxy)-N-({4-[(4-methylpiperazin-1-yl)amino]-3-nitrophenyl}sulfonyl)benzamide] had a Ki of 0.385 nM.
